Source: patent US20130108610A1 (priority 2011, published 2013)

Key:
[1] = target: T1, aconitase (Saccharomyces cerevisiae, UniProt P19414); test: Aconitase activity in lysates of treated Saccharomyces cerevisiae BY4741 cultures (Bioxytech Aconitase-340 kit); type: cell-based; conditions: for Aconitase Activity, % of Untreated Control: S. cerevisiae BY4741 in YPD, incubated overnight, cell lysate, negative activity reported as 0; for Aconitase inhibition (in words): culturing of cells in the presence of the material, effective = inhibition by 70% or more
T1 construct: endogenous in cells; host or cells: Saccharomyces cerevisiae strain BY4741
Experimental: Cultures of Saccharomyces cerevisiae strain BY4741 are grown in YPD (20 grams glucose, 20 grams peptone, 10 grams yeast extract per liter) broth overnight at 30°. The cultures are diluted with YPD to a total volume of 100 mls with an optical density (600 nm) of 0.1. The cultures are incubated with shaking until reaching an optical density of 0.2, whereupon the test material is added. The cultures are incubated overnight, and the cells are pelleted by centrifugation. The cell pellet is washed with 100 mM NaCl, 20 mM Tris pH 7.4 and resuspended in 5 ml of 100 mM NaCl, 20 mM Tris pH 7.4. Glass beads (0.5 mm) is added. The sample is alternately vortexed for one minute and incubated on ice for one minute, with a total of ten treatments. After centrifugation, the supernatant is collected. In a 96-well plate (UV-transparent Corning 3679 plate), 30 μl of cell lysate is mixed with 20 μl 100 mM NaCl, 20 mM Tris pH 7.4 and assayed using a Bioxytech Aconitase-340 kit (OxisResearch) according to instructions.
For the aconitase assay, samples are incubated for six minutes at 37°. The reaction rate is calculated based on the increase in optical density (340 nm) in the five-minute interval beginning one minute after the reaction started. The aconitase activity in lysates of treated samples is divided by the aconitase activity in lysates of untreated samples. If replicates were performed on samples, the reported data are a mean of the aconitase activity measurements of individual lysates of treated cells divided by the mean of the aconitase activity measurements of individual lysates of untreated cells. If the aconitase activity appears to be negative in lysates of treated cells, the value “0” is reported for aconitase activity (Table 1).

[2] = test system: Saccharomyces; conditions: minimal medium; by inhibition of glutamate and lysine synthesis

T1 sequence (P19414 17-778): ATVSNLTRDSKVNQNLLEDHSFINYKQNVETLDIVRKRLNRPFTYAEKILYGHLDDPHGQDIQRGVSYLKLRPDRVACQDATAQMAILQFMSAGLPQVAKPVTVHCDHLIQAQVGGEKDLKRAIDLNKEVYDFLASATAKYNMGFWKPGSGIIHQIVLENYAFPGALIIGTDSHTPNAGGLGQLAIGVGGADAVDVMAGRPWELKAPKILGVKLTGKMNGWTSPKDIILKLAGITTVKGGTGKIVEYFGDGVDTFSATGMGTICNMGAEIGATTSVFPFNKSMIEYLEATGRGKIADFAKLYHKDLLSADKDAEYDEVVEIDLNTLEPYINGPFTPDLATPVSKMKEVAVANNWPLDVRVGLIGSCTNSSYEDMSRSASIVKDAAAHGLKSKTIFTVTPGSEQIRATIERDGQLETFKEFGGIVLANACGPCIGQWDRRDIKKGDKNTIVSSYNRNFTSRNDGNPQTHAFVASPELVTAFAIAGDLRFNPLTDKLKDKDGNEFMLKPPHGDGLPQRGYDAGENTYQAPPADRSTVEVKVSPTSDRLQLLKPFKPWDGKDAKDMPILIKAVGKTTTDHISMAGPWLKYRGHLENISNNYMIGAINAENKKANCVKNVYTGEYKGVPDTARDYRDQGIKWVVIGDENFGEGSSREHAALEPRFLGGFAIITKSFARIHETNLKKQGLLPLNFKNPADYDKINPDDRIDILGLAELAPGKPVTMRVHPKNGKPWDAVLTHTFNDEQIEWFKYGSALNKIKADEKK

SMILES | Aconitase Activity, % of Untreated Control ([1]; 50 ppm test material) [%] | also measured
c1cnc2c(c1)ccc1cccnc12 [1,10-Phenanthroline] | 2 | –
Oc1cccc2cccnc12 [8-Hydroxyquinoline] | 15 | –
On1ccccc1=S.On1ccccc1=S.[Cu] [Copper Pyrithione (CuPT), Copper Pyrithione] | – | Aconitase Activity, % of Untreated Control ([1]; 5 ppm test material): 0%
O=C(O)CN(CCN(CC(=O)O)CC(=O)O)CC(=O)O [EDTA] | 36 | Aconitase inhibition (in words) [1]: not effective
CCCCCCCCOc1cccc(=O)n1O.NCCO [N-Hydroxy-6-octyloxypyridine-2(1H)one, ethanolamine salt] | 0 | –
Cc1cc(CC(C)CC(C)(C)C)n(O)c(=O)c1.NCCO (centres unmarked) [Piroctone Diamine (Octopirox), Piroctone Diamine] | 0 | –
O=S(=O)([O-])[O-].[Zn+2] [Zinc Sulfate] | 110 | –
[O-]n1ccccc1=S.[O-]n1ccccc1=S.[Zn+2] [Zinc pyrithione (ZPT), zinc salt of 1-hydroxy-2-pyridinethione] | – | Growth inhibition (in words) [2]: inhibits growth; Aconitase Activity, % of Untreated Control ([1]; 5 ppm test material): 0%; Aconitase inhibition (in words) [1]: aconitase inhibition
